Assay: Solubility tests of biocides in different solvents
Source text: The solubility of various herbicides, fungicides and insecticides has been tested using different solvents.

[1] = in 100 ml of solvent C8-C10 fatty acid dimethyl amide (1:1) (Example 11)
[2] = in 100 ml of solvent C8-C10 fatty acid methyl ester (Comparative Example C14)
[3] = in 100 ml of solvent C8 fatty acid dimethylamide (Example 9)
[4] = in 100 ml of solvent C10 fatty acid dimethyl amide (Example 10)
[5] = in 100 ml of solvent C18 fatty acid dimethyl amide (Comparative Example C13)

Cc1c(COC(=O)[C@@H]2[C@H](/C=C(\Cl)C(F)(F)F)C2(C)C)cccc1-c1ccccc1 (racemic) [Bifenthrin]
Solubility [1]: 34 percent by weight | Solubility [2]: 0 percent by weight | Solubility [3]: 30 percent by weight | Solubility [4]: 31 percent by weight | Solubility [5]: 10 percent by weight

O=C(NC(=O)c1c(F)cccc1F)Nc1ccc(OC(F)(F)C(F)OC(F)(F)F)c(Cl)c1 (stereo not drawn) [Novaluron]
Solubility [1]: 32 percent by weight | Solubility [2]: 1 percent by weight | Solubility [3]: 28 percent by weight | Solubility [4]: 28 percent by weight | Solubility [5]: 8 percent by weight

CCOc1cc(Oc2ccc(C(F)(F)F)cc2Cl)ccc1[N+](=O)[O-] [Oxyfluorfen]
Solubility (in 100 ml of solvent C6-C12 fatty alcohol + 6PO (Comparative Example C4)): 10 percent by weight | Solubility (in 100 ml of solvent C6 fatty acid dimethyl amide (Comparative Example C1)): 12 percent by weight | Solubility (in 100 ml of solvent C8-C10 fatty acid dimethyl amide (1:1) (Example 3)): 31 percent by weight | Solubility (in 100 ml of solvent C8-C10 fatty acid methyl ester (Comparative Example C3)): 3 percent by weight | Solubility (in 100 ml of solvent C8 fatty acid dimethylamide (Example 1)): 25 percent by weight | Solubility (in 100 ml of solvent C10 fatty acid dimethyl amide (Example 2)): 28 percent by weight | Solubility (in 100 ml of solvent C12-C15 benzoate (Comparative Example C5)): 7 percent by weight | Solubility (in 100 ml of solvent C12 fatty acid dimethyl amide (Example 4)): 27 percent by weight | Solubility (in 100 ml of solvent C18 fatty acid dimethyl amide (Comparative Example C2)): 19 percent by weight | Solubility (in 100 ml of solvent Di-C8 alkyl carbonate (Comparative Example C6)): 4 percent by weight

CC(C)(C)C(O)(CCc1ccc(Cl)cc1)Cn1cncn1 (stereo not drawn) [Tebucanazole]
Solubility (in 100 ml of solvent C6 fatty acid dimethyl amide (Comparative Example C7)): 18 percent by weight | Solubility (in 100 ml of solvent C8-C10 fatty acid dimethyl amide (1:1) (Example 7)): 39 percent by weight | Solubility (in 100 ml of solvent C8-C10 fatty acid methyl ester (Comparative Example C9)): 9 percent by weight | Solubility (in 100 ml of solvent C8 fatty acid dimethylamide (Example 5)): 30 percent by weight | Solubility (in 100 ml of solvent C10 fatty acid dimethyl amide (Example 6)): 33 percent by weight | Solubility (in 100 ml of solvent C12 fatty acid dimethyl amide (Example 8)): 35 percent by weight | Solubility (in 100 ml of solvent C18 fatty acid dimethyl amide (Comparative Example C8)): 22 percent by weight | Solubility (in 100 ml of solvent Di-C8 alkyl carbonate (Comparative Example C11)): 2 percent by weight | Solubility (in 100 ml of solvent Di-C8 alkyl ether (Comparative Example C12)): 2 percent by weight | Solubility (in 100 ml of solvent Triacetin (Comparative Example C10)): 6 percent by weight
